Assay results taken from US9624224B2, “Inhibitors of Bruton's tyrosine kinase” (Pharmacyclics LLC, priority 2013, dated 2017).
pIC50: −log10 of the molar value.

Columns and labels:
Format in all cases: biochemical
BTK = target: T1, BTK (Homo sapiens, UniProt Q06187); assay: Btk in vitro inhibitory activity (TR-FRET, mobility shift or radiometric filter binding kinase assay); settings: determined using one of the methods outlined in Example 47a, 47b, and 47c
T1 construct: purified from insect cells as a full-length construct containing a N-terminal 6×-His tag; His6 (N); made in house; host or cells: insect cells (baculovirus, Sf21)
T1 sequence (Q06187 whole entry): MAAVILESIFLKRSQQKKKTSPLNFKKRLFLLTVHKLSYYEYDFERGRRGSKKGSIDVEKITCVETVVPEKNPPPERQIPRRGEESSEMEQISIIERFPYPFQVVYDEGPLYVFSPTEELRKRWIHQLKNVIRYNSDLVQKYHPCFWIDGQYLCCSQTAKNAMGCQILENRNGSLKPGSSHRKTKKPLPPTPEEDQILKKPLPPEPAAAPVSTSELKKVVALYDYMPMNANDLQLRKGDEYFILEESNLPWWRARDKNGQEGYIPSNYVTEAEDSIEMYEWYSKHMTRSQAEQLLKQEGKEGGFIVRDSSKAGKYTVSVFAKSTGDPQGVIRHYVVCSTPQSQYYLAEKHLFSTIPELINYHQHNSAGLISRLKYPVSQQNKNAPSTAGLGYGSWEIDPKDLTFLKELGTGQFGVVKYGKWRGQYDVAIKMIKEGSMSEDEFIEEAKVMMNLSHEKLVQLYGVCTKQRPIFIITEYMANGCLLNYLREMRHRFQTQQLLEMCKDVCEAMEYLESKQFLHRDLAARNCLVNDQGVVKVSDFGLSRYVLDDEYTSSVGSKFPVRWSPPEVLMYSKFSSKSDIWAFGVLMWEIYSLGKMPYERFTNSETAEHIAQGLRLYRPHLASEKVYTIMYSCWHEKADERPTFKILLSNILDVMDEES
Protocol: (§1) Btk kinase activity is determined using a time-resolved fluorescence resonance energy transfer (TR-FRET) methodology. Measurements are performed in a reaction volume of 50 μL using 96-well assay plates. […] The reaction is quenched by the addition of 1.2 equivalents of EDTA (relative to divalent cation) in 25 μL of 1× Lance buffer (Perkin-Elmer). Streptavidin-APC (Perkin-Elmer) and Eu-labeled p-Tyr100 antibody (Perkin-Elmer) in 1× Lance buffer are added in a 25 μL volume to give final concentrations of 100 nM and 2.5 nM, respectively, and the mixture is allowed to incubate for one hour. The TR-FRET signal is measured on a multimode plate reader with an excitation wavelength (λEx) of 330 nm and detection wavelengths (λEm) of 615 and 665 nm. Activity is determined by the ratio of the fluorescence at 665 nm to that at 615 nm. For each compound, enzyme activity is measured at various concentrations of compound. Negative control reactions are performed in the absence of inhibitor in replicates of six, and two no-enzyme controls are used to determine baseline fluorescence levels. Inhibition constants, Ki(app), ware obtained using the program BatchKi (Kuzmic et al. (2000), Anal. Biochem. 286:45-50). IC50s are obtained according to the equation: IC50={Ki(app)/(1+[ATP]/Km^ATP)}+[E]total/2;
(§2) For all kinases, [ATP]=Km^ATP, [Btk]total=0.5 nM and [Lck]total=6 nM.
Kinase activity is measured in vitro using electrophoretic mobility shift assay. The kinase reactions are assembled in a total volume of 25 μL in 384 well plates. […] The reaction is incubated for one hour and is quenched by the addition of 45 μL of termination buffer (100 mM HEPES, pH7.5, 0.01% Triton X-100, 30 mM EDTA). The terminated reactions are analyzed using 12 channel LabChip® 3000 microfluidic detection instrument (Caliper Life Sciences). The enzymatic phosphorylation of the peptide results in a change in net charge, enabling electrophoretic separation of product from substrate peptide. As substrate and product peptides are separated, two peaks of fluorescence are observed. Change in the relative fluorescence intensity of the substrate and product peaks is the parameter measured, reflecting enzyme activity. In the presence of an inhibitor, the ratio between product and substrate is altered: the signal of the product decreases, while the signal of the substrate increases.
Activity in each sample is determined as the product to sum ratio (PSR): P/(S+P), where P is the peak height of the product peptide and S is the peak height of the substrate peptide. For each compound, enzyme activity is measured at various concentrations (12 concentrations of compound spaced by 3× dilution intervals). Negative control samples (0%-inhibition in the absence of inhibitor) and positive control samples (100%-inhibition, in the presence of 20 mM EDTA) are assembled in replicates of four and are used to calculate %-inhibition values for each inhibitor at each concentration. Percent inhibition (Pinh) is determined using following equation: Pinh=(PSR0%−PSRinh)/(PSR0%−PSR100%)*100,
where PSRmh is the product sum ratio in the presence of inhibitor, PSR0% is the average product sum ration in the absence of inhibitor and PSR100% is the average product sum ratio in 100%-inhibition control samples;
The IC50 values of inhibitors are determined by 4 parameter sigmoidal dose-response model fitting of the inhibition curves (Pinh versus inhibitor concentration) using XLfit 4 software.
Human Btk kinase (Genbank accession # NP_000052) was purified from insect cells as a full-length construct containing a N-terminal 6×-His tag. Btk kinase activity was determined using a radiometric filter binding assay. Measurements are performed in a low μL reaction volume 384-well assay plates. […]

EGFR = EGFR (Homo sapiens, UniProt P00533); assay: EGFR kinase inhibition (in vitro kinase assay)
Sequence of EGFR (P00533 25-1210, species assumed): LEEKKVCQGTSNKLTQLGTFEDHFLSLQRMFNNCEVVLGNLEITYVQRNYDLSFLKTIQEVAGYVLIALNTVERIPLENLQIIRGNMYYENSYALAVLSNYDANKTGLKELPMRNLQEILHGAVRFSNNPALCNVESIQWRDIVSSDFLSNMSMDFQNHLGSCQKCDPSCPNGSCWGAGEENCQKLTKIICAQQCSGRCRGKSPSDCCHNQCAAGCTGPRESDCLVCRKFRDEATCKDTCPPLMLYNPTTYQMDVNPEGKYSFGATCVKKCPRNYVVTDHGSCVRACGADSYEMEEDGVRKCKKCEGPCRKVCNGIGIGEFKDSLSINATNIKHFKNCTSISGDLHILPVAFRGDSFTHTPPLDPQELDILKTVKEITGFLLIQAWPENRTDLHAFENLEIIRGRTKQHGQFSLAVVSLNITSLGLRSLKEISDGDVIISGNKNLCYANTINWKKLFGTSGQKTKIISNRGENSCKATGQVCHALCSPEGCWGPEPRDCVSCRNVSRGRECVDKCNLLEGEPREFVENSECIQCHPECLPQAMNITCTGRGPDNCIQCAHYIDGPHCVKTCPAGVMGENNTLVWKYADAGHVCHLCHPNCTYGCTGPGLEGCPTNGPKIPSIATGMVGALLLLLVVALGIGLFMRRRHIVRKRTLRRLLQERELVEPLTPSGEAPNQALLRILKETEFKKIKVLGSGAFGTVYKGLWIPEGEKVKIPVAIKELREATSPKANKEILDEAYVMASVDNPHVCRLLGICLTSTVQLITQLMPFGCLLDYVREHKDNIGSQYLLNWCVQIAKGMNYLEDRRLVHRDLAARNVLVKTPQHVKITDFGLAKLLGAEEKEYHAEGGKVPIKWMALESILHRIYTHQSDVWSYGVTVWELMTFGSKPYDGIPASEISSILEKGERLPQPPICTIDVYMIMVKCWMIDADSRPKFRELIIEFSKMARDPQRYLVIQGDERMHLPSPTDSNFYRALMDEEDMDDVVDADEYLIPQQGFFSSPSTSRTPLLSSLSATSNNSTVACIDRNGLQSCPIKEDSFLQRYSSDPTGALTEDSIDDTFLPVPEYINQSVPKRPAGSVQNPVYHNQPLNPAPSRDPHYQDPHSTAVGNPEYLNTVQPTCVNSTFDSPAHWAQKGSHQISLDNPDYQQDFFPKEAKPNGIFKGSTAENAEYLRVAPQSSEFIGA

Lck = Lck (Homo sapiens, UniProt P06239); assay: Lck kinase inhibition (in vitro kinase assay)
Sequence of Lck (P06239 whole entry, species assumed): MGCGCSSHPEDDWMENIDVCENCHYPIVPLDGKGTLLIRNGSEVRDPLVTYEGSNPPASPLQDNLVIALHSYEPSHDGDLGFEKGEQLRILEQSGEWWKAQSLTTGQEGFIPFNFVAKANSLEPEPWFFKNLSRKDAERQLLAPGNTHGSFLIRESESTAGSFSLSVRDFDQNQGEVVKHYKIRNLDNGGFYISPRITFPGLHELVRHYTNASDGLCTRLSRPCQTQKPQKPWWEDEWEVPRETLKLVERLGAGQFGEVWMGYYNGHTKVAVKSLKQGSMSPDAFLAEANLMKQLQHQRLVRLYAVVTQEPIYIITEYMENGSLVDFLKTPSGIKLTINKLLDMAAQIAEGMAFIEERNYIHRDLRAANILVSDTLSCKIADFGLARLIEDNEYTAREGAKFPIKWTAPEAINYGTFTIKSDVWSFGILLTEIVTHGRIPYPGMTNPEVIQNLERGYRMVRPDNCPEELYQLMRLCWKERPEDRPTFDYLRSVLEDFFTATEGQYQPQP
Protocol: as §1, §2

pIC50 (BTK) | pIC50 (EGFR) | pIC50 (Lck) | SMILES
> 7.00 | 5.00 to 6.00 | 5.00 to 6.00 | COc1cc(-c2nn([C@@H]3CCN(C(=O)/C=C/CN(C)C4CC4)C3)c3ncnc(N)c23)ccc1C(=O)Nc1cc(C)ccn1 [Example 5, (R,E)-4-(4-amino-1-(1-(4-(cyclopropyl(methyl)amino)but-2-enoyl)pyrrolidin-3-yl)-1H-pyrazolo[3,4-d]pyrimidin-3-yl)-2-methoxy-N-(4-methylpyridin-2-yl)benzamide]
> 7.00 | 5.00 to 6.00 | 6.00 to 7.00 | Cc1cnc(NC(=O)c2ccc(-c3nn([C@@H]4CCN(C(=O)/C=C/CN(C)C5CC5)C4)c4ncnc(N)c34)cc2)s1 [Example 6, (R,E)-4-(4-amino-1-(1-(4-(cyclopropyl(methyl)amino)but-2-enoyl)pyrrolidin-3-yl)-1H-pyrazolo[3,4-d]pyrimidin-3-yl)-N-(5-methylthiazol-2-yl)benzamide]
> 7.00 | 6.00 to 7.00 | > 7.00 | CC(C)c1cnc(NC(=O)c2ccc(-c3nn([C@@H]4CCN(C(=O)/C=C/CN(C)C5CC5)C4)c4ncnc(N)c34)cc2)s1 [Example 8, (R,E)-4-(4-amino-1-(1-(4-(cyclopropyl(methyl)amino)but-2-enoyl)pyrrolidin-3-yl)-1H-pyrazolo[3,4-d]pyrimidin-3-yl)-N-(5-isopropylthiazol-2-yl)benzamide]
> 7.00 | 6.00 to 7.00 | > 7.00 | CCc1cnc(NC(=O)c2ccc(-c3nn([C@@H]4CCN(C(=O)/C=C/CN(C)C5CC5)C4)c4ncnc(N)c34)cc2)s1 [Example 9, (R,E)-4-(4-amino-1-(1-(4-(cyclopropyl(methyl)amino)but-2-enoyl)pyrrolidin-3-yl)-1H-pyrazolo[3,4-d]pyrimidin-3-yl)-N-(5-ethylthiazol-2-yl)benzamide]
> 9.00 | 6.00 to 7.00 | > 7.00 | CCCc1cnc(NC(=O)c2ccc(-c3nn([C@@H]4CCN(C(=O)/C=C/CN(C)C5CC5)C4)c4ncnc(N)c34)cc2)s1 [Example 10, (R,E)-4-(4-amino-1-(1-(4-(cyclopropyl(methyl)amino)but-2-enoyl)pyrrolidin-3-yl)-1H-pyrazolo[3,4-d]pyrimidin-3-yl)-N-(5-propylthiazol-2-yl)benzamide]
> 7.00 | 6.00 to 7.00 | > 7.00 | CN(C/C=C/C(=O)N1CC[C@@H](n2nc(-c3ccc(C(=O)Nc4ncc(C(F)(F)F)s4)cc3)c3c(N)ncnc32)C1)C1CC1 [Example 11, (R,E)-4-(4-amino-1-(1-(4-(cyclopropyl(methyl)amino)but-2-enoyl)pyrrolidin-3-yl)-1H-pyrazolo[3,4-d]pyrimidin-3-yl)-N-(5-(trifluoromethyl)thiazol-2-yl)benzamide]
> 7.00 | < 5.00 | < 5.00 | CN(C/C=C/C(=O)N1CC[C@@H](n2nc(-c3ccc(C(=O)Nc4ncco4)cc3)c3c(N)ncnc32)C1)C1CC1 [Example 14, (R,E)-4-(4-amino-1-(1-(4-(cyclopropyl(methyl)amino)but-2-enoyl)pyrrolidin-3-yl)-1H-pyrazolo[3,4-d]pyrimidin-3-yl)-N-(oxazol-2-yl)benzamide]
> 7.00 | 6.00 to 7.00 | 5.00 to 6.00 | CN(C/C=C/C(=O)N1CC[C@@H](n2nc(-c3ccc(C(=O)Nc4ccccn4)cc3)c3c(N)ncnc32)C1)C1CC1 [Example 15, (R,E)-4-(4-amino-1-(1-(4-(cyclopropyl(methyl)amino)but-2-enoyl)pyrrolidin-3-yl)-1H-pyrazolo[3,4-d]pyrimidin-3-yl)-N-(pyridin-2-yl)benzamide]
> 7.00 | 5.00 to 6.00 | 6.00 to 7.00 | CN(C/C=C/C(=O)N1CC[C@@H](n2nc(-c3ccc(C(=O)Nc4cc(C#N)ccn4)cc3)c3c(N)ncnc32)C1)C1CC1 [Example 16, (R,E)-4-(4-amino-1-(1-(4-(cyclopropyl(methyl)amino)but-2-enoyl)pyrrolidin-3-yl)-1H-pyrazolo[3,4-d]pyrimidin-3-yl)-N-(4-cyanopyridin-2-yl)benzamide]
> 9.00 | 5.00 to 6.00 | 6.00 to 7.00 | CN(C/C=C/C(=O)N1CC[C@@H](n2nc(-c3ccc(C(=O)Nc4cc(C5CC5)ccn4)cc3)c3c(N)ncnc32)C1)C1CC1 [Example 17, (R,E)-4-(4-amino-1-(1-(4-(cyclopropyl(methyl)amino)but-2-enoyl)pyrrolidin-3-yl)-1H-pyrazolo[3,4-d]pyrimidin-3-yl)-N-(4-cyclopropylpyridin-2-yl)benzamide]
> 9.00 | 5.00 to 6.00 | 6.00 to 7.00 | CC(C)c1ccnc(NC(=O)c2ccc(-c3nn([C@@H]4CCN(C(=O)/C=C/CN(C)C5CC5)C4)c4ncnc(N)c34)cc2)c1 [Example 18, (R,E)-4-(4-amino-1-(1-(4-(cyclopropyl(methyl)amino)but-2-enoyl)pyrrolidin-3-yl)-1H-pyrazolo[3,4-d]pyrimidin-3-yl)-N-(4-isopropylpyridin-2-yl)benzamide]
> 9.00 | 6.00 to 7.00 | 6.00 to 7.00 | CN(C)C/C=C/C(=O)N1CC[C@@H](n2nc(-c3ccc(C(=O)Nc4ccccn4)cc3)c3c(N)ncnc32)C1 [Example 30, (R,E)-4-(4-amino-1-(1-(4-(dimethylamino)but-2-enoyl)pyrrolidin-3-yl)-1H-pyrazolo[3,4-d]pyrimidin-3-yl)-N-(pyridin-2-yl)benzamide]
> 9.00 | 6.00 to 7.00 | > 7.00 | CC(C)c1ccnc(NC(=O)c2ccc(-c3nn([C@@H]4CCN(C(=O)/C=C/CN(C)C)C4)c4ncnc(N)c34)cc2)c1 [Example 31, (R,E)-4-(4-amino-1-(1-(4-(dimethylamino)but-2-enoyl)pyrrolidin-3-yl)-1H-pyrazolo[3,4-d]pyrimidin-3-yl)-N-(4-isopropylpyridin-2-yl)benzamide]
> 9.00 | 6.00 to 7.00 | 6.00 to 7.00 | CN(C)C/C=C/C(=O)N1CC[C@@H](n2nc(-c3ccc(C(=O)Nc4cc(C#N)ccn4)cc3)c3c(N)ncnc32)C1 [Example 32, (R,E)-4-(4-amino-1-(1-(4-(dimethylamino)but-2-enoyl)pyrrolidin-3-yl)-1H-pyrazolo[3,4-d]pyrimidin-3-yl)-N-(4-cyanopyridin-2-yl)benzamide]
